Laboratory results published in patent US20240217922A1, “MODULATORS OF SORTILIN ACTIVITY” (Insusense ApS, priority 2021, published 2024).

Molecular target: hSortilin (Homo sapiens (Human), UniProt Q99523)
Experiment: Neurotensin scintillation proximity assay, [125I]-neurotensin
Settings: displacement of [125I]-neurotensin binding to 6his-Sortilin; average of at least 2 determinations; read-out: IC50 [125I]Neurotensin SPA
Protocol: Compound affinity was determined by measuring the displacement of
[3H]-neurotensin or [125I]-neurotensin binding to hSortilin in SPA format. Total volume of 40 μl in 50 mM HEPES pH 7.4 assay buffer containing 100 mM NaCl, 2.0 mM CaCI2, 0.1% BSA and 0.1% Tween-20. […] IC50 values were calculated by nonlinear regression using the sigmoid concentration-response (variable slope) using CDD Vault software. All values reported are average of at least 2 determinations.

hSortilin, sequence (Q99523 78-831): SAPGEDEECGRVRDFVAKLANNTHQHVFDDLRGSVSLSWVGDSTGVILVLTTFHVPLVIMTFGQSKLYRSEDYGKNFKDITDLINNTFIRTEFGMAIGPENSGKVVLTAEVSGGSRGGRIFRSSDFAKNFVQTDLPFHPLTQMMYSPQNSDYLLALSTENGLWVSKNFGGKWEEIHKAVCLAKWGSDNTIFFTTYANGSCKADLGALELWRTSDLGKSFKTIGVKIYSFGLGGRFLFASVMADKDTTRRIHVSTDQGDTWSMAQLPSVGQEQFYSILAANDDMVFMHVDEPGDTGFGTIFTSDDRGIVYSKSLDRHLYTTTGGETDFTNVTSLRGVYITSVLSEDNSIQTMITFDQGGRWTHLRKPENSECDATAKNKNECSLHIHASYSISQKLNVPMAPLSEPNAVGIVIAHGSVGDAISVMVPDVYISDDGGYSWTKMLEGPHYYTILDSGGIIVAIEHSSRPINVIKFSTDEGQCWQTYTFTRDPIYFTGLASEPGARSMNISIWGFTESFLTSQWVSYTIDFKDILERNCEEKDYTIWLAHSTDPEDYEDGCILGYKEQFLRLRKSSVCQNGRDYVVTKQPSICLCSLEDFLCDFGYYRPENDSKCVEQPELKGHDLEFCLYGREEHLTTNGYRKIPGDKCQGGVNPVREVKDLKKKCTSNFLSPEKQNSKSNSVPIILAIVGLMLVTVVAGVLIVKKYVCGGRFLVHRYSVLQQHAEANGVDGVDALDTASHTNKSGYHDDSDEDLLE

CC[C@H](C)[C@H](NC(C)=O)C(=O)N[C@@H](CCC(C)(C)C)C(=O)O [Example 16, (S)-2-((2S,3S)-2-Acetamido-3-methylpentanamido)-5,5-dimethylhexanoic Acid] showed an IC50 of 290 nM.
